# System: S. aureus
# Test: Minimum inhibitory concentrations (MICs) for S. aureus of exemplary compounds (Table 2)
# Format: cell-based
# Conditions: Staphylococcus aureus, minimum inhibitory concentrations for S. aureus; read-out: MICs
# Source text: Exemplary compounds in accordance with the invention are listed in Table 2 with their minimum inhibitory concentrations (MICs) (μg/mL) for S. aureus:
# Furthermore, the antibiotic compounds can be assayed for anti-proliferative or anti-infective properties on a cellular level. For example, where the target organism is a microorganism, the activity of compounds of interest can be assayed by growing the microorganisms of interest in media either containing or lacking the compound. Growth inhibition can be indicative that the molecule could be acting as a protein synthesis inhibitor. […] For this purpose, a panel of bacterial strains can be assembled to include a variety of target pathogenic species, some containing resistance mechanisms that have been characterized. Use of such a panel of organisms permits the determination of structure-activity relationships not only in regards to potency and spectrum, but also with a view to obviating resistance mechanisms. The assays can be performed in microtiter trays according to conventional methodologies as published by The National Committee for Clinical Laboratory Standards (NCCLS) guidelines (NCCLS. M7-A5-Methods for Dilution Antimicrobial Susceptibility Tests for Bacteria That Grow Aerobically; Approved Standard-Fifth Edition. NCCLS Document M100-S12/M7 (ISBN 1-56238-394-9)).
row,SMILES,MIC [µg/mL]
1,"CC(=O)NC[C@H]1CN(c2ccc(-c3ccc(CNCc4ccoc4)cc3)c(F)c2)C(=O)O1 [Compound 4023, N-[3-(2-Fluoro-4′-{[(furan-3-ylmethyl)-amino]-methyl}-biphenyl-4-yl)-2-oxo-oxazolidin-5-(S)-ylmethyl]-acetamide]",1
2,"CC(=O)NC[C@H]1CN(c2ccc(-c3ccc(Cn4ncnn4)cc3)c(F)c2)C(=O)O1 [Compound 1056, N-[3-(2-Fluoro-4′-tetrazol-2-ylmethyl-biphenyl-4-yl)-2-oxo-oxazolidin-5-(S)-ylmethyl]-acetamide]",0.25
3,"CC(=O)NC[C@H]1CN(c2ccc(-c3ccc(CN4CCCC(F)(F)C4)cc3)c(F)c2)C(=O)O1 [Compound 1097, N-{3-[4′-(3,3-Difluoro-piperidin-1-ylmethyl)-2-fluoro-biphenyl-4-yl]-2-oxo-oxazolidin-5-(S)-ylmethyl}-acetamide]",2
4,"CC(=O)NC[C@H]1CN(c2ccc(-c3ccc(CSc4nnnn4CCN(C)C)cc3)c(F)c2)C(=O)O1 [Compound 2027, N-(3-{4′-[1-(2-Dimethylamino-ethyl)-1H-tetrazol-5-ylsulfanylmethyl]-2-fluoro-biphenyl-4-yl}-2-oxo-oxazolidin-5-(S)-ylmethyl)-acetamide]",1
5,"COc1cc(CNCc2ccoc2)ccc1-c1ccc(N2C[C@H](CNC(C)=O)OC2=O)cc1F [Compound 4028, N-[3-(2-Fluoro-4′-{[(furan-3-ylmethyl)-amino]-methyl}-2′-methoxy-biphenyl-4-yl)-2-oxo-oxazolidin-5-(S)-ylmethyl]-acetamide]",8
6,"CC(=O)NC[C@H]1CN(c2ccc(-c3ccc(CSc4nccs4)cc3)c(F)c2)C(=O)O1 [Compound 2030, N-{3-[2-Fluoro-4′-(thiazol-2-ylsulfanylmethyl)-biphenyl-4-yl]-2-oxo-oxazolidin-5-(S)-ylmethyl}-acetamide]",1
7,"COc1nc(C)c(C=CC(=O)NCc2ccc(-c3ccc(N4C[C@H](CNC(C)=O)OC4=O)cc3F)cc2)c(OC)n1 [Compound 4003, N-{4′-[5-(S)-(Acetylamino-methyl)-2-oxo-oxazolidin-3-yl]-2′-fluoro-biphenyl-4-ylmethyl}-3-(2,4-dimethoxy-6-methyl-pyrimidin-5-yl)-acrylamide]",128
8,"CC(=O)NC[C@H]1CN(c2ccc(-c3ccc(CN(C)Cc4ccoc4)cc3)c(F)c2)C(=O)O1 [Compound 4061, N-(3-{2-Fluoro-4′-[(furan-3-ylmethyl-methyl-amino)-methyl]-biphenyl-4-yl}-2-oxo-oxazolidin-5-(S)-ylmethyl)-acetamide]",4
9,"CC(=O)NC[C@H]1CN(c2ccc(-c3ccc(CSc4cnn[nH]4)cc3)c(F)c2)C(=O)O1 [Compound 2016, N-{3-[2-Fluoro-4′-(3H-[1,2,3]triazol-4-ylsulfanylmethyl)-biphenyl-4-yl]-2-oxo-oxazolidin-5-(S)-ylmethyl}-acetamide]",0.25
10,"CC(=O)NC[C@H]1CN(c2ccc(-c3ccc(CCn4ccnc4)cc3)c(F)c2)C(=O)O1 [Compound 1002, N-{3-[2-Fluoro-4′-(2-imidazol-1-yl-ethyl)-biphenyl-4-yl]-2-oxo-oxazolidin-5-(S)-ylmethyl}-acetamide]",2
11,"CC(=O)NC[C@H]1CN(c2ccc(-c3ccc(CN(C)Cc4ccnc5ccccc45)cc3)c(F)c2)C(=O)O1 [Compound 4032, N-(3-{2-Fluoro-4′-[(methyl-quinolin-4-ylmethyl-amino)-methyl]-biphenyl-4-yl}-2-oxo-oxazolidin-5-(S)-ylmethyl)-acetamide]",1
12,"CC(=O)NC[C@H]1CN(c2ccc(-c3ccc(CN4CCN(CC#N)CC4)cc3)c(F)c2)C(=O)O1 [Compound 1004, N-{3-[4′-(4-Cyanomethyl-piperazin-1-ylmethyl)-2-fluoro-biphenyl-4-yl]-2-oxo-oxazolidin-5-(S)-ylmethyl}-acetamide]",2
13,"CC(=O)NC[C@H]1CN(c2ccc(-c3ccc(CNCc4cc(C)oc4C(F)(F)F)cc3)c(F)c2)C(=O)O1 [Compound 4105, N-[3-(2-Fluoro-4′-{[(5-methyl-2-trifluoromethyl-furan-3-ylmethyl)-amino]-methyl}-biphenyl-4-yl)-2-oxo-oxazolidin-5-(S)-ylmethyl]-acetamide]",0.5
14,"CC(=O)NC[C@H]1CN(c2ccc(-c3ccc(CSc4ccncc4)cc3)c(F)c2)C(=O)O1 [Compound 2019, N-{3-[2-Fluoro-4′-(pyridin-4-ylsulfanylmethyl)-biphenyl-4-yl]-2-oxo-oxazolidin-5-(S)-ylmethyl}-acetamide]",1

# Results, then the compound that gave them:
row,MIC [µg/mL],SMILES
1,2,"CC(=O)NC[C@H]1CN(c2ccc(-c3ccc(CNC(C)c4ccncc4)cc3)c(F)c2)C(=O)O1 (mixture of isomers) [Compound 4159, N-(3-{2-Fluoro-4′-[(1-pyridin-4-(R/S)-yl-ethylamino)-methyl]-biphenyl-4-yl}-2-oxo-oxazolidin-5-(S)-ylmethyl)-acetamide]"
2,1,"CC(=O)NC[C@H]1CN(c2ccc(-c3ccc(CNCCSc4nncs4)cc3)c(F)c2)C(=O)O1 [Compound 5003, N-[3-(2-Fluoro-4′-{[2-([1,3,4]thiadiazol-2-ylsulfanyl)-ethylamino]-methyl}-biphenyl-4-yl)-2-oxo-oxazolidin-5-(S)-ylmethyl]-acetamide]"
3,4,"CC(=O)NC[C@H]1CN(c2ccc(-c3ccc(CNC(=O)C(N)c4cccnc4)cc3)c(F)c2)C(=O)O1 (stereo partly drawn) [Compound 4294, N-{4′-[5-(S)-(Acetylamino-methyl)-2-oxo-oxazolidin-3-yl]-2′-fluoro-biphenyl-4-ylmethyl}-2-amino-2-pyridin-3-yl-acetamide]"
4,128,"CC(=O)NC[C@H]1CN(c2ccc(-c3ccc(NC(=O)Nc4ccncc4)cc3)c(F)c2)C(=O)O1 [Compound 6006, N-{3-[2-Fluoro-4′-(3-pyridin-4-yl-ureido)-biphenyl-4-yl]-2-oxo-oxazolidin-5-(S)-ylmethyl}-acetamide]"
5,4,"CC(=O)NC[C@H]1CN(c2ccc(-c3ccc(CNCc4c(N)oc5ccccc5c4=O)cc3)c(F)c2)C(=O)O1 [Compound 4129, N-[3-(4′-{[(2-Amino-4-oxo-4H-chromen-3-ylmethyl)-amino]-methyl}-2-fluoro-biphenyl-4-yl)-2-oxo-oxazolidin-5-(S)-ylmethyl]-acetamide]"
6,4,"CC(=O)NC[C@H]1CN(c2ccc(-c3ccc(CNCc4cnn[nH]4)nc3)c(F)c2)C(=O)O1 [Compound 4277, N-{3-[3-Fluoro-4-(6-{[(3H-[1,2,3]triazol-4-ylmethyl)-amino]-methyl}-pyridin-3-yl)-phenyl]-2-oxo-oxazolidin-5-(S)-ylmethyl}-acetamide]"
7,8,"CC(=O)NC[C@H]1CN(c2ccc(-c3ccc(CNC(=O)C4CCN4C(=O)OC(C)(C)C)cc3)c(F)c2)C(=O)O1 (stereo partly drawn) [Compound 4295, 2-({4′-[5-(S)-(Acetylamino-methyl)-2-oxo-oxazolidin-3-yl]-2′-fluoro-biphenyl-4-ylmethyl}-carbamoyl)-azetidine-1-carboxylic acid tert-butyl ester]"
8,0.5,"CC(=O)NC[C@H]1CN(c2ccc(-c3ccc(CNCc4c(C(F)(F)F)nn(C)c4Cl)cc3)c(F)c2)C(=O)O1 [Compound 4125, N-[3-(4′-{[(5-Chloro-1-methyl-3-trifluoromethyl-1H-pyrazol-4-ylmethyl)-amino]-methyl}-2-fluoro-biphenyl-4-yl)-2-oxo-oxazolidin-5-(S)-ylmethyl]-acetamide]"
9,1,"CNc1nc(CNCc2ccc(-c3ccc(N4C[C@H](CNC(C)=O)OC4=O)cc3F)cc2)ns1 [Compound 4180, N-[3-(2-Fluoro-4′-{[(5-methylamino-[1,2,4]thiadiazol-3-ylmethyl)-amino]-methyl}-biphenyl-4-yl)-2-oxo-oxazolidin-5-(S)-ylmethyl]-acetamide]"
10,1,"CC(=O)NC[C@H]1CN(c2ccc(-c3ccc(C(=O)NCc4cocn4)cc3)c(F)c2)C(=O)O1 [Compound 4205, 4′-[5-(S)-(Acetylamino-methyl)-2-oxo-oxazolidin-3-yl]-2′-fluoro-biphenyl-4-carboxylic acid (oxazol-4-ylmethyl)-amide]"
11,4,"CC(=O)NC[C@H]1CN(c2ccc(-c3ccc(COCc4ccccn4)cn3)c(F)c2)C(=O)O1 [Compound 4197, N-(3-{3-Fluoro-4-[5-(pyridin-2-ylmethoxymethyl)-pyridin-2-yl]-phenyl}-2-oxo-oxazolidin-5-(S)-ylmethyl)-acetamide]"
12,2,"CC(=O)NC[C@H]1CN(c2ccc(-c3ccc(CN[C@@H](Cc4c[nH]c5ccccc45)C(N)=O)cc3)c(F)c2)C(=O)O1 [Compound 4175, 2-({4′-[5-(S)-(Acetylamino-methyl)-2-oxo-oxazolidin-3-yl]-2′-fluoro-biphenyl-4-ylmethyl}-amino)-3-(S)-(1H-indol-3-yl)-propionamide]"
13,4,CC(=O)NC[C@H]1CN(c2ccc(-c3ccc(CNC[C@H](O)CSc4nnc[nH]4)cc3)c(F)c2)C(=O)O1 [Compound 5011]
14,4,"CC(=O)NC[C@H]1CN(c2ccc(-c3ccc(CNCCCc4cnn[nH]4)cc3)c(F)c2)C(=O)O1 [Compound 4258, N-[3-(2-Fluoro-4′-{[3-(3H-[1,2,3]triazol-4-yl)-propylamino]-methyl}-biphenyl-4-yl)-2-oxo-oxazolidin-5-(S)-ylmethyl]-acetamide]"
15,16,"CC(=O)NC[C@H]1CN(c2ccc(-c3ccc(CNC(=O)C4CN(C(=O)OC(C)(C)C)C4)cc3)c(F)c2)C(=O)O1 [Compound 4290, 3-({4′-[5-(S)-(Acetylamino-methyl)-2-oxo-oxazolidin-3-yl]-2′-fluoro-biphenyl-4-ylmethyl}-carbamoyl)-azetidine-1-carboxylic acid tert-butyl ester]"

# — patent publication US10471046B2, “Method for treating, preventing, or reducing the risk of skin infection” (Melinta Subsidiary Corp., priority 2014, dated 2019)
